Laboratory results from a melting point compilation (Tetko et al.; mined from patent text by program, amines drawn as free bases though some values may be those of a salt).

Row | SMILES | melting point
1 | C[Si](C)(C)CCOC1OC(COC(=O)c2ccccc2)C(O)C(O)C1N=[N+]=[N-] (centres undefined) | 55 to 57 °C
2 | C#CCCCOc1c(C)cc(C(N)=O)cc1C | 81 to 84 °C
3 | Cc1ccc(N(C)c2ccco2)cc1O | 127 to 128 °C
4 | Cc1c(Cl)ncc2ncc(-c3ccccc3)cc12 | 136 °C
5 | CC(=O)c1ccc2occ(C#N)c(=O)c2c1 | 170 to 172 °C
6 | CCCN(c1ccccc1)c1nc(C)nc(SC)c1[N+](=O)[O-] | 117 to 119 °C
7 | COc1ccc2[nH]c(C(=O)c3cc4ccccc4[nH]3)cc2c1 | 112 °C
8 | COc1cc(OC)c([N+](=O)[O-])c(OC)c1N | 111 °C
9 | O=C(O)CN(CC(=O)O)CC(CCc1ccc([N+](=O)[O-])cc1)N(CC(=O)O)CC(=O)O (centres undefined) | 188 to 189 °C
10 | CCCCN(CCCC)CCCOc1ccc(C(=O)c2c(-c3ccccc3)cc3cc(C(=O)OCC)ccn23)cc1 | 148 to 151 °C
11 | Cc1c(S(C)=O)c(C#N)nn1-c1c(Cl)cc(C(F)(F)F)cc1Cl (centres undefined) | 109 to 115 °C
12 | Cc1c(NC(=O)CC(C)(C)C)c(C)c2c(c1-c1ccsc1)OCC2c1ccc(C(C)C)cc1 (centres undefined) | 172 to 174 °C
13 | Cn1c(-c2ccc(OC3CCN(C4CCCC4)CC3)cc2)nc2ncccc2c1=O | 175 to 177 °C
14 | OCCC(CCO)c1ccncc1 | 66 to 68 °C
15 | Cc1c(SCCN2CCOCC2)ccnc1CSc1nc2cc(C(=O)O)ccc2[nH]1 | 120 to 124 °C
16 | CC(C)(C)c1cc(-c2cccs2)cc2c1OCC2(C)C | 61 to 63 °C
17 | NC(=O)CN1C(=O)COc2cc(F)c([N+](=O)[O-])cc21 | 220 to 226 °C
18 | CCOC(CN1C(=O)C(NC(=O)Nc2cccc(C)c2)CN(C(=O)C(C)(C)C)c2ccccc21)OCC (centres undefined) | 167 to 169 °C
19 | CCCC1=C(C(=O)OCC)C(c2ccoc2C)c2c[nH]nc2N1 (centres undefined) | 123 to 125 °C
20 | Clc1ccc2c(c1)C(c1ccccc1)=NCc1nnc(CNCC3CC3)n1-2 | 154 to 157 °C
21 | O=S1(=O)NC(C2CCCCC2)Nc2ccc(S(=O)(=O)c3ccccc3)cc21 (centres undefined) | 243 to 245 °C
22 | Cn1c(C(F)(F)F)cc(=O)n(-c2cc(OCCNC=O)c(Cl)cc2F)c1=O | 128 to 131 °C
23 | CC(=O)Nc1ccc(OCCOc2ccccc2)cc1[N+](=O)[O-] | 104 to 106 °C
24 | O=C(O)COc1cccc(CCn2ncc(-c3ccccc3)c2-c2ccccc2)c1 | 133 to 138 °C
25 | CCOC(=O)c1scnc1Cl | 43 to 45 °C

Row | SMILES | melting point
26 | CCCCCCc1ccc(C(=O)Oc2ccc(C(=O)O)cc2)cc1 | 162 °C
27 | Cc1cc(C(N)=O)ncc1C(c1c(F)ccc(F)c1F)S(=O)(=O)c1ccc(F)c(F)c1 (centres undefined) | 200 to 201 °C
28 | CCCCn1nc(SC2CCC(CC(=O)O)CC2)c(C(=O)O)c1Cc1cc2c(cc1Cl)OCO2 (centres undefined) | 100 °C
29 | COc1ccc2c(c1)COc1ccc(CC(=O)O)cc1C2=O | 163 to 165 °C
30 | O=C(NO)c1ccc2c(c1)CN(C(=O)c1ccc(-c3ccccc3)cc1)C2 | 160 to 190 °C
31 | NCCCCCCCCCCN1CCN(CC(=O)N2c3ccccc3C(=O)Nc3cccnc32)CC1 | 95 to 97 °C
32 | CCc1nc(/C=C/c2cn(-c3ccccc3)nc2O)cs1 | 222 to 224 °C
33 | O=C(NC1CC1c1ccc(-c2ncn(-c3ccc(OC(F)(F)F)cc3)n2)cc1)Oc1ccccc1 (centres undefined) | 171 to 173 °C
34 | NS(=O)(=O)c1cc2c3c(cc([N+](=O)[O-])c2cc1[N+](=O)[O-])N(C(=O)C(F)(F)F)CC3CCl (centres undefined) | 201 to 204 °C
35 | CC(C)(C)c1ccc(N2CCNCC2)cc1 | 48 to 52 °C
36 | COc1cc(C(=O)N(C(C)C)C2CCCCC2)ccc1Cn1cnc2ncccc21 | 189 to 191 °C
37 | O=C(O)CCC(=O)c1ccc(-c2ccc(Br)cc2)cc1 | 198 to 200 °C
38 | O=C(COc1ccc(C2=NNC(=O)NC2)cc1)NCCN1CCOCC1 | 216 to 217 °C
39 | COC1=Nc2cc(OC)c(F)cc2C(c2ccccc2Cl)=NC1C(C)=O (centres undefined) | 172 to 174 °C
40 | CCO[C@@H]1c2ccc3c(nc(C)n3C)c2O[C@H](c2ccccc2)[C@H]1O | 222 °C
41 | C=CCN(C(=O)OCc1ccccc1)c1cc(F)c(-c2ccncc2)c(F)c1 | 82 to 83 °C
42 | CCS(=O)c1nc2ccc([N+](=O)[O-])cc2s1 (centres undefined) | 145 to 149 °C
43 | CCCOc1ccccc1-c1nc2cc([N+](=O)[O-])ccc2c(=O)[nH]1 | 138 °C
44 | COC1c2ccccc2C2C(=O)N(Cc3ccccc3)C(=O)C12 (centres undefined) | 170 to 172 °C
45 | C=CCOc1ccc2c(C)cc(=O)oc2c1C(=O)C=Cc1ccccc1 | 136 to 139 °C
46 | O=C(O)C1(CSc2ccc(Oc3ccc(Br)cc3)cc2)CCOCC1 | 143 °C
47 | Cn1cnc(COc2nn3c(-c4ccccc4)nnc3c(Cl)c2N2CCCC2)n1 | 198 to 199 °C
48 | CCOC(=O)C1(Cl)Oc2c(cc(C(=O)c3ccccc3F)c(OC)c2C)C1Cl (centres undefined) | 102 °C
49 | O=C(Cc1c[nH]c2ccccc12)Nc1ccc(-n2nc(C3CC3)cc2C2CC2)cc1 | 158 to 164 °C
50 | C/C(=C\c1ccc(OCCS(C)=O)cc1)c1ccc2c(c1)C(C)(C)CCC2(C)C (centres undefined) | 134 to 136 °C

Row | SMILES | melting point
51 | Cc1cc(OS(=O)(=O)c2ccccc2)cc2c(C3CCN(C)CC3)c[nH]c12 | 118 °C
52 | CC(CCC(=O)O)C1CCC2C3C(O)C(F)C4CC(O)CCC4(C)C3CCC12C (centres undefined) | 102 to 105 °C
53 | Cn1cc(C(=O)NC(=O)N2CC2C#N)c([N+](=O)[O-])n1 (centres undefined) | 58 to 64 °C
54 | COc1ccccc1N1CCN(CCCCN2CSCC2=O)CC1 | 80 to 81 °C
55 | Cc1cccc(C)c1N=CNc1c(C)cccc1C | 174 to 176 °C
56 | CC(C)(C)C(=O)c1ccc(C(=O)NC(=O)CCc2ccccc2)cc1 | 137 to 138 °C
57 | CC1C(=O)N(c2ccccc2)C(=S)N1c1ccc(Sc2ccccc2)cc1 (centres undefined) | 84 °C
58 | OCc1cc(CCCCCCCOc2ccc(C3=NCCO3)cc2)on1 | 122 to 124 °C
59 | CCOC(=O)Cc1ccc(-c2nc(COc3ccc(CO)cc3OC)c(C)o2)cc1 | 97 to 98 °C
60 | O=C(NCc1ccc(Cl)cc1)c1cnc2c(F)c(Oc3ccc(CO)cc3)c(F)cc2c1O | 235 to 240 °C
61 | COc1cc2cc(CO)c(CO)c(-c3cccc(Br)n3)c2cc1OC | 107 to 108 °C
62 | COC(=O)C1OC(I)C(OC(=O)C(C)(C)C)C(OC(=O)C(C)(C)C)C1OC(=O)C(C)(C)C (centres undefined) | 98 to 100 °C
63 | CCSc1ccc(-c2coc3ccc(-c4nnc(C)o4)cc23)cc1 | 144 to 145 °C
64 | COc1ccc(N(CCCC(=O)O)C(=O)CCN(C(=O)c2ccc(Cl)cc2)c2c(C)cccc2C)cc1 | 138 to 140 °C
65 | COC(=O)C1=C(O)C(OC)(OC)C(O)=C(C(=O)OC)C1 | 143 to 144 °C
66 | CC(C)NC(=O)C1OC1c1ccccc1 (centres undefined) | 114 to 115 °C
67 | CC(C)n1nc(-c2cc(C(=O)O)cnc2-c2ccccc2)ccc1=O | 221 to 223 °C
68 | CCOC(=O)NN=C(CO)c1cccc(Cl)c1 | 109 to 110 °C
69 | CCOC(=O)c1c(N2CCN(C)CC2)c2cnc(-c3ccccc3)nc2n(CC)c1=O | 180 to 185 °C
70 | O=S(=O)(c1ccc(O)cc1)N1c2ccccc2-c2ccccc2C1c1ccccc1 (centres undefined) | 210 to 212 °C
71 | Nc1cc(OCc2ccccc2)c(OCc2ccccc2)cn1 | 111 to 113 °C
72 | CCOC(=O)CCCCCCn1c(=O)c(=O)[nH]c2cc(Br)ccc21 | 187 to 190 °C
73 | C=COC(=O)N=c1sc2cc(OC(F)(F)F)ccc2n1CCSC(C)=O | 173 °C
74 | COC(=O)c1cc([N+](=O)[O-])ccc1ON=C(C)c1ccccc1 | 108 to 110 °C
75 | CC(C)n1c(=O)n(C)c(=O)c2c(S(=O)CCCO)n(C3Cc4ccccc4C3)cc21 (centres undefined) | 164 to 165 °C

Row | SMILES | melting point
76 | O=C(CCCCC1CCSS1)n1ccnc1 (centres undefined) | 37 to 39 °C
77 | CCOC(=O)c1nc(-c2ccc(OC)c(OC)c2)cs1 | 100 to 102 °C
78 | O=C(Oc1cccc(F)c1)c1ccc(F)cc1 | 43.5 to 45.2 °C
79 | CC(C)CC1(C(CCN2C(=O)c3ccc([N+](=O)[O-])cc3C2=O)C(=O)NO)CCN(CCc2ccccc2)C1=O (centres undefined) | 161 to 162 °C
80 | COc1ccc2cccnc2c1[N+](=O)[O-] | 178 °C
81 | Cc1cccc(N2CCN(CCCc3ccc(C4CCC(=O)N4)cc3)CC2)c1 (centres undefined) | 87 to 89 °C
82 | COc1ccc(C(=O)c2cn(C)c3ccc([N+](=O)[O-])cc23)cc1 | 229 °C
83 | O=C(O)C1=CSC2C(=Cc3cn4c(n3)CCCCC4)C(=O)N12 (centres undefined) | > 250 °C
84 | O=[N+]([O-])c1ccc(N2CCN(CCCN3c4cccc5cccc(c45)S3(=O)=O)CC2)cc1 | 186 °C
85 | Nc1c(F)cc(Cl)c2nc(Cl)sc12 | 173 °C
86 | CCCCCCCCCCCCCCCCn1c2cc(Br)ccc2c2ccc(Br)cc21 | 85 to 86 °C
87 | COC(c1ccc(Cl)c2nc3n(c12)CCCN3c1ccc(Cl)cc1Cl)C(F)(F)F (centres undefined) | 161 to 163 °C
88 | CN(C)Cc1ccc(NC(=O)C2=Cc3cc(-c4ccccc4)ccc3CC2)cc1 | 182 to 184 °C
89 | CCOC(=O)/C=C/c1cn(-c2ccccc2)nc1OCc1ccc(OCc2nc(-c3ccccc3)oc2C)c(OC)c1 | 194 to 195 °C
90 | Oc1ccc(-c2cc(F)c3cc(O)ccc3c2)cc1 | 236 to 238 °C
91 | CN1CCN(C2Cc3ccc(Cl)cc3Sc3cc(F)ccc32)CC1 (centres undefined) | 156 to 158 °C
92 | CC#CC(=O)Nc1ccc2ncnc(Nc3cccc(N(C)C)c3)c2c1 | 252 to 254 °C
93 | CC(=O)CCC(=S)N(CC(=O)O)C1Cc2ccccc2C1 | 120 to 122 °C
94 | O=C(O)CSCc1cc2c(cc1Cc1ccccc1)OCO2 | 99.5 to 100 °C
95 | Cc1cccc(NC(=O)NC2N=C(C(C)C)c3cccc(C)c3N(CC(=O)N3CCCCCCC3)C2=O)c1 (centres undefined) | 132 to 133 °C
96 | CCCc1nn(C)c2c(=O)[nH]c(-c3cc([N+](=O)[O-])ccc3OCC)nc12 | 214 to 216 °C
97 | COc1cc(C(=O)c2ccccn2)cc([N+](=O)[O-])c1OC | 113 °C
98 | CCOC(=O)c1c(S(=O)(=O)Cl)nn2c(C)cc(C)nc12 | 128 to 130 °C
99 | C[Si](C)(C)C#Cc1ccc(Br)cc1 | 62 °C
